What was measured:
[1] = target: BRAF V600E (Homo sapiens (Human), UniProt P15056, V600E); test: Inhibitory activity against kinase BRAF V600E, Z'-LYTE method (Invitrogen); format: biochemical; conditions: for inhibition at 1 µM: 1 μM compound, read-out: Inhibition (% inhibition at 1 μM) against BRAF V600E
Protocol: Inhibitory activities Inhibitory activities of compounds against BRAF, and BRAF V600E were measured by Invitrogen using Z′-LYTE® Method as briefly described in the following. 4× Test compounds are dissolved in 1% DMSO. […] ATP solutions are diluted to a 4×ATP working concentration in Kinase Buffer (50 mM HEPES pH 7.5, 0.01% BRIJ-35, 10 mM MgCl2, 1 mM EGTA). Reaction started by 30-second shaking of mixture consisting of 2.5 μL 4× test compound, […] and 2.5 μL 4×ATP Solution on Bar-coded Corning, low volume NBS, black 384-well plate (Corning Cat. #3676). Then the mixture was incubated for 60-minute at room temperature for the kinase reaction, followed by addition of 5 μL of a 1:1024 dilution of development reagent A and 30-second plate shake. The mixture was then incubated for another 60-minute at room temperature for development reaction. Fluorescence was read by plate reader. IC50 was calculated by plotting the concentration of compound vs the percentage of inhibition in treated wells using GraphPad Prism 5.
Table 2 and 3 show % inhibition at 1 μM of several compounds of the invention against BRAF and BRAF V600E, respectively, using Z′-LYTE® method.
The scale utilized in Table 4 is as follows: +++ less than 100 nM; and ++ greater than 100 nM.

[2] = target: KDR (VEGFR2) (Homo sapiens (Human), UniProt P35968); test: Inhibitory activity against kinase KDR, Z'-LYTE method (Invitrogen); format: biochemical; conditions: for inhibition at 1 µM: 1 μM compound, read-out: Inhibition (% inhibition at 1 μM) against KDR
KDR (VEGFR2), sequence (P35968 20-1356): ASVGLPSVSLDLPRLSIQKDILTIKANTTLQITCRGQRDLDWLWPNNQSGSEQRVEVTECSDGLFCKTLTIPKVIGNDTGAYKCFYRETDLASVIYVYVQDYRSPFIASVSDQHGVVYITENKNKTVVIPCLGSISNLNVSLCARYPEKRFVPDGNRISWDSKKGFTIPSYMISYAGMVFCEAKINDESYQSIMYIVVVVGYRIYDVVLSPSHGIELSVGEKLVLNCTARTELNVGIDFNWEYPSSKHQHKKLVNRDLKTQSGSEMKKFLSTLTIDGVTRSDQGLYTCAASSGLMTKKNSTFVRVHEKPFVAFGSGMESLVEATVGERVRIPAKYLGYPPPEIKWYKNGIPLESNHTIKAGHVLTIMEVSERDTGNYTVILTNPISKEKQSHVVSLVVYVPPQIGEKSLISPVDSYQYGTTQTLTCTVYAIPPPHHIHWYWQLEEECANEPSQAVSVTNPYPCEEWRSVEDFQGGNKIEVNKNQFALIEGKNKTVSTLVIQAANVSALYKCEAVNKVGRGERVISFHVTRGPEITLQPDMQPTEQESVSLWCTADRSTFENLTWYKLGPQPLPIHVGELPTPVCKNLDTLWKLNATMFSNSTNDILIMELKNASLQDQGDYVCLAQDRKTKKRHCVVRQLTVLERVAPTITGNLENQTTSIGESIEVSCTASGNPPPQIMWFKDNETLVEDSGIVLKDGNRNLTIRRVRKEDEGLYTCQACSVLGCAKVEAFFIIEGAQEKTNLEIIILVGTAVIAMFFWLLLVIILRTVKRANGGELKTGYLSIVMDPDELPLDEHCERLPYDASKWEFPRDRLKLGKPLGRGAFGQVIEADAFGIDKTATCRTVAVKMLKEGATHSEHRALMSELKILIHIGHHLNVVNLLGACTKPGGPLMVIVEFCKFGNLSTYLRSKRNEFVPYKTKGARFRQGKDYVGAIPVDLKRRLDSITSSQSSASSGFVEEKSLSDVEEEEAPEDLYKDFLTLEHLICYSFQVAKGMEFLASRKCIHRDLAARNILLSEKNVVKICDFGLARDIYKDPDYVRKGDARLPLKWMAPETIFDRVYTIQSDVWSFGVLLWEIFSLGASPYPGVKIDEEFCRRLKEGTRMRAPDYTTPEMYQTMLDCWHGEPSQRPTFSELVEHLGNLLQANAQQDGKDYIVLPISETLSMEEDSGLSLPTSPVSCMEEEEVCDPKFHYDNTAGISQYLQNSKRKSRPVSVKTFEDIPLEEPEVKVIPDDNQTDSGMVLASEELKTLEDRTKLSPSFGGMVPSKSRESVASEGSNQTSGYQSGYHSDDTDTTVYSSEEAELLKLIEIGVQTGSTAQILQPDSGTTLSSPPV
Protocol: Inhibitory activities of compounds against KDR (VEGFR2) were also measured by Invitrogen using Z′-LYTE® Method as described above with the following modification. The 2× KDR (VEGFR2)/Tyr 01 mixture is prepared in 50 mM HEPES pH 7.5, 0.01% BRIJ-35, 10 mM MgCl2, 1 mM EGTA. The final 10 μL Kinase Reaction consists of 0.5-11.7 ng KDR (VEGFR2) and 2 μM Tyr 01 in 50 mM HEPES pH 7.5, 0.01% BRIJ-35, 10 mM MgCl2, 1 mM EGTA. After the 1 hour Kinase Reaction incubation, 5 μL of a 1:256 dilution of Development Reagent B is added.
The scale utilized in Table 5 is as follows: +++ less than 100 nM; and ++ greater than 100 nM

[3] = system: A375 cells; test: Inhibition of cancer cell growth, MTT or MTS assay, A375; format: cell-based; conditions: Homo sapiens, A-375; 72 h incubation
Protocol: (§1) Inhibition of cell growth by compounds was measured using MTT or MTS assay. Tumor cell lines were purchased from ATCC (American Type Culture Collection, Manassas, Va.). All cell lines were maintained in RPMI 1640 (Hyclone) supplemented with 10% fetal bovine serum (FBS, Hyclone), glutamine (2 mM, Hyclone), and antibiotics (penicillin 100 U/mL and streptomycin 50 μg/mL) at 37° C. in a humidified atmosphere of 5% CO2 in air. Taxol (as a positive control, Sigma) and compounds were dissolved in DMSO (Sigma), and the final concentration of DMSO in the medium was 1%. Tumor cells were plated in 96-well plates at densities of about 2000 (A375) or 4000 (A549 and Colo205) cells/well of a 96-well plate and allowed to adhere/grow for 24 h. They were then treated with various concentrations of drug and incubated for 72 h. For MTT method, medium was then removed by inverting and tapping the plates. 100 μL of MTT (0.5 mg/ml) was added to each well followed by an incubated at 37° C. for 4 h. MTT was then removed and 200 μL of DMSO was added to each well, and the ODs at 570 nm were measured after a 5 second shaking cycle in a 96-well spectrophotometer. For MTS method, 20 μL MTS (CellTiter 96 Aqueous One Solution, Promega) was added to each well followed by an incubated at 37° C. for 2-4 h, solutions were then directly put in a 96-well spectrophotometer, and the ODs at 490 nm were measured.
(§2) All concentrations of compounds were tested in triplicate and controls were averaged over 4 wells. IC50 was calculated by plotting the concentration of compound vs the percentage of inhibition in treated wells using GraphPad Prism 5. […] The scale utilized in Tables […] is as follows: +++ less than 1000 nM; ++ between 1000 nM and 5000 nM; and + greater than 5000 nM. The scale utilized in Table 8 is as follows: +++ less than 2000 nM; ++ between 2000 nM and 5000 nM; and + greater than 5000 nM.

[4] = system: A549 cells; test: Inhibition of cancer cell growth, MTT or MTS assay, A549; format: cell-based; conditions: Homo sapiens, 72 h incubation
Protocol: as §1, §2

BRAF V600E, sequence (P15056 whole entry V600E): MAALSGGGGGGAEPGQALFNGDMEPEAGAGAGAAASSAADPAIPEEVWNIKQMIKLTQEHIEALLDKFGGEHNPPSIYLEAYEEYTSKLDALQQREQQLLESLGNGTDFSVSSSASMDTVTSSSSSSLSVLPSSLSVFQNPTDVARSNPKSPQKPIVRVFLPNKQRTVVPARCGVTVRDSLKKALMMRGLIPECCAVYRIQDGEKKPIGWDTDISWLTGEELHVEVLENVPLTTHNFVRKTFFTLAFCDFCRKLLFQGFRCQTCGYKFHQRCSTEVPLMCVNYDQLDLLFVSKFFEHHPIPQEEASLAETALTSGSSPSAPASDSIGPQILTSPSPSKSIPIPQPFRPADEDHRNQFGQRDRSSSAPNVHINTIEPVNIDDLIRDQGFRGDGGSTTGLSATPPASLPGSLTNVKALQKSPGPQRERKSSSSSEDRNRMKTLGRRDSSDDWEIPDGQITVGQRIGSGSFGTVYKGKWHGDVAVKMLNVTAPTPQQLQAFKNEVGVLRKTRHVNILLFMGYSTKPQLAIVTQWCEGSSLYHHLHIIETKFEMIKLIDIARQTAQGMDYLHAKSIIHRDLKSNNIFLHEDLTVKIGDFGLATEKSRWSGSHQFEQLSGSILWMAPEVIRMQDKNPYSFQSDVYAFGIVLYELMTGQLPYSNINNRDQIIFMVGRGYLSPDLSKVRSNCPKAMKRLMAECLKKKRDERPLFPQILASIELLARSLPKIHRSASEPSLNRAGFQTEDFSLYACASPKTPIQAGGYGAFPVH

SMILES | IC50 [1] [µM] | inhibition at 1 µM [1] [%] | IC50 [2] [µM] | inhibition at 1 µM [2] [%] | IC50 [3] [µM] | IC50 [4] [µM]
O=C(Nc1ccc(F)c(Oc2ccc3ncc(N4CCOCC4)nc3c2)c1)Nc1ccc(Cl)c(C(F)(F)F)c1 [Compound C009, 1-(4-chloro-3-(trifluoromethyl)phenyl)-3-(4-fluoro-3-((3-morpholinoquinoxalin-6-yl)oxy)phenyl)urea] | > 0.1 | < 70 | > 0.1 | > 89 | < 1 | < 2
O=C(Nc1ccc(F)c(Oc2ccc3nccnc3c2)c1)c1ccc(Cl)c(C(F)(F)F)c1 [Compound C010, 4-chloro-N-(4-fluoro-3-(quinoxalin-6-yloxy)phenyl)-3-(trifluoromethyl)benzamide] |  | 70 to 89 |  | 70 to 89 | > 5 | 2 to 5
O=C(Nc1ccc(F)c(Oc2ccc3nccnc3c2)c1)Nc1ccc(Cl)c(C(F)(F)F)c1 [Compound C011, 1-(4-chloro-3-(trifluoromethyl)phenyl)-3-(4-fluoro-3-(quinoxalin-6-yloxy)phenyl)urea] |  | < 70 |  | 70 to 89 | < 1 | < 2
CCCS(=O)(=O)Nc1ccc(F)c(Oc2ccc3nccnc3c2)c1 [Compound C013, N-(4-fluoro-3-(quinoxalin-6-yloxy)phenyl)propane-1-sulfonamide] |  |  |  |  | > 5 | > 5
O=C(Nc1cc(F)cc(Oc2ccc3nccnc3c2)c1)c1cccc(F)c1 [Compound C014, 3-fluoro-N-(3-fluoro-5-(quinoxalin-6-yloxy)phenyl)benzamide] |  | 70 to 89 |  |  | > 5 | > 5
O=C(Nc1cc(F)cc(Oc2ccc3nccnc3c2)c1)c1cccc(C(F)(F)F)c1 [Compound C015, N-(3-fluoro-5-(quinoxalin-6-yloxy)phenyl)-3-(trifluoromethyl)benzamide] |  | > 89 |  | < 70 | > 5 | > 5
O=C(Nc1cc(F)cc(Oc2ccc3nccnc3c2)c1)c1ccc(Cl)c(C(F)(F)F)c1 [Compound C016, 4-chloro-N-(3-fluoro-5-(quinoxalin-6-yloxy)phenyl)-3-(trifluoromethyl)benzamide] |  | > 89 |  |  | > 5 | > 5
O=C(Nc1ccc(F)c(Oc2ccc3nccnc3c2)c1)c1cccc(C(F)(F)F)c1 [Compound C018, N-(4-fluoro-3-(quinoxalin-6-yloxy)phenyl)-3-(trifluoromethyl)benzamide] |  | > 89 |  | 70 to 89 | 1 to 5 | > 5
O=C(Nc1cccc(F)c1)Nc1cc(F)cc(Oc2ccc3nccnc3c2)c1 [Compound C020, 1-(3-fluoro-5-(quinoxalin-6-yloxy)phenyl)-3-(3-fluorophenyl)urea] |  | 70 to 89 |  |  | > 5 | 2 to 5
O=C(Nc1cc(F)cc(Oc2ccc3nccnc3c2)c1)Nc1ccc(Cl)c(C(F)(F)F)c1 [Compound C022, 1-(4-chloro-3-(trifluoromethyl)phenyl)-3-(3-fluoro-5-(quinoxalin-6-yloxy)phenyl)urea] |  | 70 to 89 |  | 70 to 89 | < 1 | < 2
O=C(Nc1cccc(F)c1)Nc1ccc(F)c(Oc2ccc3nccnc3c2)c1 [Compound C023, 1-(4-fluoro-3-(quinoxalin-6-yloxy)phenyl)-3-(3-fluorophenyl)urea] |  | > 89 |  | < 70 | 1 to 5 | 2 to 5
O=C(Nc1cccc(C(F)(F)F)c1)Nc1ccc(F)c(Oc2ccc3nccnc3c2)c1 [Compound C024, 1-(4-fluoro-3-(quinoxalin-6-yloxy)phenyl)-3-(3-(trifluoromethyl)phenyl)urea] |  | > 89 |  | 70 to 89 | 1 to 5 | < 2
O=C(Nc1ccc(F)c(Oc2ccc3ncc(N4CCOCC4)nc3c2)c1)c1cccc(F)c1 [Compound C025, 3-fluoro-N-(4-fluoro-3-((3-morpholinoquinoxalin-6-yl)oxy)phenyl)benzamide] |  | 70 to 89 |  | 70 to 89 | > 5 | > 5
O=C(Nc1ccc(F)c(Oc2ccc3ncc(N4CCOCC4)nc3c2)c1)c1cccc(C(F)(F)F)c1 [Compound C026, N-(4-fluoro-3-((3-morpholinoquinoxalin-6-yl)oxy)phenyl)-3-(trifluoromethyl)benzamide] |  | 70 to 89 |  | > 89 | 1 to 5 | 2 to 5
O=C(Nc1cc(F)cc(Oc2ccc3ncc(N4CCOCC4)nc3c2)c1)c1cccc(F)c1 [Compound C027, 3-fluoro-N-(3-fluoro-5-((3-morpholinoquinoxalin-6-yl)oxy)phenyl)benzamide] |  | 70 to 89 |  | 70 to 89 | 1 to 5 | > 5
O=C(Nc1cc(F)cc(Oc2ccc3ncc(N4CCOCC4)nc3c2)c1)c1ccc(Cl)c(C(F)(F)F)c1 [Compound C029, 4-chloro-N-(3-fluoro-5-((3-morpholinoquinoxalin-6-yl)oxy)phenyl)-3-(trifluoromethyl)benzamide] |  | 70 to 89 |  | 70 to 89 | 1 to 5 | 2 to 5
O=C(Nc1cccc(F)c1)Nc1cc(F)cc(Oc2ccc3ncc(N4CCOCC4)nc3c2)c1 [Compound C031, 1-(3-fluoro-5-((3-morpholinoquinoxalin-6-yl)oxy)phenyl)-3-(3-fluorophenyl)urea] |  | > 89 |  | < 70 | > 5 | > 5
O=C(Nc1cc(F)cc(Oc2ccc3ncc(N4CCOCC4)nc3c2)c1)Nc1cccc(C(F)(F)F)c1 [Compound C032, 1-(3-fluoro-5-((3-morpholinoquinoxalin-6-yl)oxy)phenyl)-3-(3-(trifluoromethyl)phenyl)urea] |  | 70 to 89 |  | 70 to 89 | 1 to 5 | 2 to 5
O=C(Nc1ccc(Oc2ccc3nccnc3c2)cc1)c1cccc(F)c1 [Compound C077, 3-fluoro-N-(4-(quinoxalin-6-yloxy)phenyl)benzamide] |  | < 70 |  |  | 1 to 5 | > 5
O=C(Nc1ccc(Oc2ccc3nccnc3c2)cc1)c1ccc(Cl)c(C(F)(F)F)c1 [Compound C079, 4-chloro-N-(4-(quinoxalin-6-yloxy)phenyl)-3-(trifluoromethyl)benzamide] |  | < 70 |  |  | > 5 | > 5
CCCS(=O)(=O)Nc1ccc(Oc2ccc3nccnc3c2)cc1 [Compound C080, N-(4-(quinoxalin-6-yloxy)phenyl)propane-1-sulfonamide] |  |  |  |  | > 5 | > 5
O=C(Nc1ccc(C(F)(F)F)cc1)Nc1ccc(Oc2ccc3nccnc3c2)cc1F [Compound C097, 1-(2-fluoro-4-(quinoxalin-6-yloxy)phenyl)-3-(4-(trifluoromethyl)phenyl)urea] |  | 70 to 89 |  |  | > 5 | > 5

Source: patent US10590106B2, “Certain chemical entities, compositions, and methods” (NeuPharma, Inc., priority 2012, dated 2020)
